# Laboratory results as given in PubChem BioAssay AID179 (DTP/NCI, 2004).
# The source made the active and inactive calls.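 How the source made its calls: active means compounds giving half or more protection of infected cells from virus-caused growth loss, again on retest; inactive means the rest.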
# Test system: CEM cells HIV-1 protection, formazan growth assay
# Test: NCI AIDS Antiviral Assay
# Conditions: for IC50: measured here: growth of uninfected CEM cells
# How it was run: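 Protection of CEM cells against HIV-1 measured as cell growth via soluble formazan read-out, with five concentrations tested on both infected and uninfected cells; failure to protect may reflect toxicity.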
Structure (SMILES),EC50 [µM],IC50 [µM],outcome
O=C1C2CCCC1C1/C(=[N+](/[O-])O)C=C([N+](=O)[O-])C2C1[N+](=O)[O-] (configuration not stated),> 234,> 234,–
Nc1nc(Cl)cc(NCC2(CO)CC(CCCc3ccccc3)C2)n1 (configuration not stated),> 20,0.0603,–
Cc1ccc(/C=N/NS(=O)(=O)c2ccccc2)c(C)c1,–,–,inactive
CC(C)(C)c1ccc(Br)c(CCC(=O)NO)c1,–,–,inactive
O=C(/C=C/c1ccc(O)c(O)c1)NC(CO)C(=O)O (configuration not stated),> 200,28.8,–
Cc1csc2n/c(=N/[N+](=O)[O-])sn12,> 138,66.1,–
CC(C)=CCOc1cc(O)c2c(c1)C(=O)c1cc(C)cc(O)c1C2=O,> 50.1,> 50.1,–
c1ccc(CN2COc3ccc4c5c(ccc4c3C2)OCN(Cc2ccccc2)C5)cc1,> 2.45,> 2.45,–
COc1cc(/C=C/c2ccnc3ccccc23)cc(OC)c1OC,> 200,1.48,–
COc1ccc([N+](=O)[O-])c2c(NCCCN(C)C)c(C)c(C)nc12,> 200,91.2,–
Brc1c2nc3ccccc3nc2n2ccc3ccccc3c12,> 28.8,> 28.8,–
C/C=C/C=C/c1nc(C#N)c(N)o1,> 200,85.1,–
Cn1cc(NC(=O)c2cc(NC(=O)c3cc(NC(=O)/C=C/C(=O)O)cn3C)cn2C)cc1C(=O)NCCC(=N)N,> 100,89.1,–
CC(C)c1cc[n+](/C(C(=S)Nc2cccc(Cl)c2)=C(/[O-])c2ccc([N+](=O)[O-])cc2)cc1,> 200,69.2,–
CCOC(=O)C1C2CCC(C2=C(c2ccccc2)c2ccccc2)C1C(=O)O (configuration not stated),> 234,102,–
COc1cc(NS(=O)(=O)c2ccc(C(C)=O)cc2)nc(OC)n1,> 200,> 200,–
O=C(OCCCl)c1ccccc1NC(=O)N1CCOCC1,–,–,inactive
COc1cc2cccc(N)c2cc1OC,> 200,> 200,–
Cc1cc(C)n2c(=O)[nH]nc2c1,> 200,178,–
CCOC(=O)N/N=C(/OCC)c1ccccc1,> 200,> 200,–
CC(=O)OCC1OC(SC2=NC(=O)/C(=C/c3ccccc3)S2)C(OC(C)=O)C(OC(C)=O)C1OC(C)=O (configuration not stated),> 200,32.4,–
CC(O)(C(=O)N(O)c1ccc(Cl)cc1)c1ccc(Cl)cc1 (configuration not stated),> 20,17.8,–

Structure (SMILES),EC50 [µM],IC50 [µM],outcome
O=C(O)C1CSCN1 (configuration not stated),> 468,> 468,–
CCC(=O)C[P+](c1ccccc1)(c1ccccc1)c1ccccc1,> 200,69.2,–
N=c1sc(N2CCOCC2)nn1CC(=O)c1ccccc1,> 200,129,–
O=C1c2n[nH]nc2C(=O)c2n[nH]nc21,> 200,> 200,–
N#CCCN(CCC#N)c1ccc(/C=C2\N=C(c3cc([N+](=O)[O-])ccc3Cl)N(NC(=O)CC(=O)Nc3ccccc3Cl)C2=O)cc1,> 11,> 11,–
CCOC(=O)/C=C/c1cccc(F)c1,> 200,> 200,–
COC(=O)/C(Cl)=C1/CC1COCc1ccccc1 (configuration not stated),> 186,107,–
c1ccc2c(NCCCCCCCCNc3c4ccccc4nc4ccccc34)c3ccccc3nc2c1,–,–,inactive
COC(=O)/C(=C/c1ccc(OC)cc1)C(C(=O)O)=C1CCCCC1,> 398,5.62,–
O=C(NC1C=Nc2ccc(Cl)cc2NC1=O)c1ccc(Cl)cc1 (configuration not stated),> 200,> 200,–
O=C1CN(c2cccc(C(F)(F)F)c2)C(=O)CN1CCN1CC(=O)N(c2cccc(C(F)(F)F)c2)CC1=O,> 200,> 200,–
O=C1CC(CC(O)[C@@H]2CCCC[C@@H]2O)CC(=O)N1c1ccccc1 (some centres not stated),> 200,> 200,–
Cc1coc2c1[C@@H](O)[C@@]1(C)[C@H](CCC[C@@H]1C)C2,> 200,35.5,–
Clc1ccc(/C(=C/c2ccccc2)Cn2ccnc2)cc1,> 200,35.5,–
CC(NC1CC1)c1ccccc1 (configuration not stated),–,–,inactive
CCOC(=O)CN1C(=O)c2ccc(NC(=O)C(=O)O)cc2S1(=O)=O,> 200,> 200,–
O=C(CNC(=O)OCc1ccccc1)NCCCCC(NC(=O)OCc1ccccc1)C(=O)O (configuration not stated),> 200,> 200,–
NC(=O)c1ccc([As](=O)(O)O)cc1N,> 200,> 200,–
O=C1Sc2ccc(Cl)cc2C(=O)N2CCSC12 (configuration not stated),> 50.1,> 50.1,–
CC(C)=C1C2C(C13C(=O)OC(C)(C)OC3=O)C2(C)C (configuration not stated),> 490,> 490,–
COC1/C=C\C=C(/C)C(=O)Nc2cc3nc4ccc(Br)cc4oc-3c(c2=O)CC(C)CC(OC)C(O)C(C)/C=C(\C)C1OC(N)=O (configuration not stated),> 0.2,0.0115,–
C[n+]1cn(C2=C([O-])c3ccccc3C(=O)/C2=N\S(=O)(=O)c2ccccc2)c2ccccc21,> 151,126,–

Structure (SMILES),EC50 [µM],IC50 [µM],outcome
CCCNC(=S)/N=C/c1c(O)cc(C)oc1=O,> 200,> 200,–
O=C(CC(=O)C1=CNc2ccccc2S1)C(=O)Nc1ccc(Cl)cc1,> 126,> 126,–
O=[N+]([O-])c1ccc(Cl)cc1-n1nc(-c2ccccc2)cc1-c1ccccc1,> 200,> 200,–
CC1OC(OC2C(O)COC(OC3C(C)OC(OC4C(OC(=O)[C@]56CCC(C)(C)C[C@@H]5C5=CCC7[C@@]8(C)C[C@H](O)[C@H](OC9OC(CO)C(O)C(O)C9O)[C@@](C)(CO)[C@@H]8CC[C@@]7(C)[C@]5(C)CC6)OCC(O)C4O)C(O)C3O)C2O)C(O)C(O)C1O (some centres not stated),> 100,29.5,–
CON(C)C(=O)[C@H]1C[C@@]1(C)CO,> 200,> 200,–
COc1cc(C(c2cccc3ccccc23)N2C(=O)CCC2C(=O)O)cc(OC)c1OC (configuration not stated),> 200,> 200,–
COc1cc2c(cc1OC)C(C#N)C2 (configuration not stated),1050,1320,–
N#CCCC1(CCC#N)CCc2ccccc2C1=O,> 200,> 200,–
CCCCn1c(=O)[nH]c2c(N)ncnc21,> 200,> 200,–
CN1N=C(c2ccncc2)OC1c1ccc(C(F)(F)F)cc1 (configuration not stated),> 200,132,–
Cc1cccc([B-]23OCC[N+]2(CNC(=O)C2=C(O)C4(O)C(=O)C5=C(O)c6c(O)cccc6C(C)(O)C5CC4C(N(C)C)C2=O)CCO3)c1 (configuration not stated),> 38.9,> 38.9,–
CC(C)Cn1cnnc1NS(=O)(=O)c1cc(C(=O)NN)c(Cl)cc1S,> 200,> 200,–
O=C(CC(=O)C1CCOC1=O)C(=O)Nc1cccc(Cl)c1 (configuration not stated),–,–,inactive
Cc1ccc(N2C(N)=C(C#N)C(C#N)(C#N)C2c2ccccc2)cc1 (configuration not stated),> 200,2.82,–
O=C1Nc2cnc(Cl)nc2Nc2ccccc21,> 75.9,> 75.9,–
CCCCOP(=O)(OCCCC)c1ccccc1,0.0631,> 200,–
CCOC(=O)C(=Cc1cccc(Cl)c1)C(=O)OCC,> 91.2,6.17,–
N#CC1(N2CCCC2)CCC2(CC1)OCCO2,–,–,inactive
Cn1cc(NC(=O)c2cc([N+](=O)[O-])cn2C)cc1C(=O)Nc1cc(S(=O)(=O)O)c2cc(S(=O)(=O)O)cc(S(=O)(=O)O)c2c1,275,347,–
COc1cc(CS(=O)c2ccc(O)cc2)cc(OC)c1OC (configuration not stated),> 200,> 200,–
Nn1c(SCC(=O)O)nc2ccccc2c1=O,> 200,> 200,–
CCCN1C(=O)CN(S(=O)(=O)c2ccc(Cl)cc2)C1=O,> 200,> 200,–

Structure (SMILES),EC50 [µM],IC50 [µM],outcome
COc1cc(/C=C2\CCOC2=O)ccc1OCc1ccccc1,> 32.4,> 32.4,–
C[C@]12CC[C@@H]3c4ccc(OS(N)(=O)=O)cc4CC[C@H]3[C@@H]1CCC2=O,–,–,inactive
CCCN(CCC)/N=C/c1c2c(O)c3c(O)c(C)c4c(c3c1O)C(=O)C(C)(O/C=C/C(OC)C(C)C(OC(C)=O)C(C)C(O)C(C)C(O)C(C)/C=C/C=C(C)C(=O)N2)O4 (configuration not stated),> 200,3.47,–
[O-]c1nn(C2OC(CO)C(O)C2O)c2cccc[n+]12 (configuration not stated),> 933,> 933,–
CCOc1ccc(OCC)c([P+](c2ccccc2)(c2ccccc2)c2ccccc2)c1,–,–,inactive
Nc1ccc2c(O)c(N=Nc3ccc(-c4ccc(N=Nc5c(S(=O)(=O)O)cc6cc(S(=O)(=O)O)c(N=Nc7cc(Cl)ccc7Cl)c(N)c6c5O)cc4)cc3)c(S(=O)(=O)O)cc2c1,–,–,inactive
C1COC(NC(C2CC2)C2CC2)=N1,–,–,inactive
CC1OC2CC(=O)OC2C2=C1C(=O)c1c(O)cccc1C2=O (configuration not stated),> 2,0.0282,–
CCN(CC)Cc1cc(Nc2ccnc3ccc4nn(C)nc4c23)ccc1O,> 603,15.8,–
S=c1cc(-c2ccc3c(c2)OCO3)s[nH]1,> 200,162,–
CCOP(=O)(OCC)C(Cc1ccccc1)N=C(c1ccccc1)c1ccccc1 (configuration not stated),> 200,10.7,–
CCOC(=O)/C(=C\n1c(=O)[nH]c(=O)[nH]c1=S)C(=O)c1ccccc1,–,–,inactive
CC1(C)COP(Oc2ccccc2)OC1,> 200,> 200,–
COC1/C=C/OC2(C)Oc3c(C)c(O)c4c(O)c(c(/C=N/N5CC(C)N(C(=O)c6ccccc6)C(C)C5)c(O)c4c3C2=O)NC(=O)C(C)=C/C=C/C(C)C(O)C(C)C(O)C(C)C(OC(C)=O)C1C (configuration not stated),> 200,6.46,–
COC1CC(C)(NC(C)=O)C2OC(c3ccccc3)OCC2O1 (configuration not stated),> 200,> 200,–
CCOC(=O)CC(=O)Nc1cccc2sc3ncccc3c(=O)c12,> 200,30.2,–
O=C(NC1=C(Cl)C(=O)c2ccccc2C1=O)C(=O)C(C(=O)c1ccc2ccccc2c1)C1OC(=O)c2ccccc21 (configuration not stated),> 45.7,11.5,–
O=C1C(O)=C(c2ccccc2C(=O)O)C(=O)C(O)=C1c1ccccc1C(=O)O,> 110,> 110,–
C(=N\Nc1ccc2ccccc2n1)/c1ccccn1,> 20,1.1,–
CC(C)C1CC(CO)(CNc2nc(N)nc(Cl)c2C=O)C1 (configuration not stated),> 200,1.78,–
CO[C@H](C(=O)O[C@H]1C(=O)N2CCC3CCC1C32C)c1ccccc1 (some centres not stated),> 759,501,–
